In PubChem BioAssay (NCI):
Where “and” joins values, the source holds several entries; their conditions need not be identical. Identical values can stand only once.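 Compound exposure: 48 hours, 5 concentrations, 96-well plates. Abbreviation: GI50, concentration required for 50% inhibition of growth. Definition used: TGI = concentration required for complete inhibition of growth.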

Tests used:
Assay in all cases: inhibition of tumour cell growth, NCI panel, 48 h
SF-268 CNS = tested on: SF-268 CNS
HCT-15 colon = tested on: HCT-15 colon
NCI-H23 lung = tested on: NCI-H23 lung
OVCAR-5 ovarian = tested on: OVCAR-5 ovarian
LXFL 529 NSCLC = tested on: LXFL 529 NSCLC
SF-539 CNS = tested on: SF-539 CNS
CCRF-CEM leukemia = tested on: CCRF-CEM leukemia
OVCAR-4 ovarian = tested on: OVCAR-4 ovarian
DLD-1 colon = tested on: DLD-1 colon
T-47D breast = tested on: T-47D breast

COc1ccc2nc3cc(Cl)ccc3c(NCCC(=O)OCC(O)C(O)C(O[C@H](C)C(=O)NC(C)C(=O)NC(CCC(N)=O)C(=O)OCc3ccccc3)C(C=O)NC(C)=O)c2c1 (stereo partly specified)
TGI (SF-268 CNS): 32.8 µM
TGI (HCT-15 colon): 52.4 µM
TGI (NCI-H23 lung): 27.5 µM
TGI (OVCAR-5 ovarian): 47 µM
TGI (LXFL 529 NSCLC): 31.2 µM
TGI (SF-539 CNS): 37.1 µM
TGI (CCRF-CEM leukemia): > 100 µM
TGI (OVCAR-4 ovarian): 34.3 µM
TGI (DLD-1 colon): 33.6 µM

O=C(Nc1ccc(Cl)c(Cl)c1)C(=O)Nn1c(=S)[nH]c2ccccc2c1=O
TGI (SF-268 CNS): > 100 µM
TGI (HCT-15 colon): > 100 µM
TGI (NCI-H23 lung): > 100 µM
TGI (OVCAR-5 ovarian): > 100 µM
TGI (LXFL 529 NSCLC): > 100 µM
TGI (SF-539 CNS): > 100 µM
TGI (CCRF-CEM leukemia): > 100 µM
TGI (OVCAR-4 ovarian): > 100 µM
TGI (DLD-1 colon): > 100 µM

O=C(CCc1nnc2s/c(=C\c3ccc4c(c3)OCO4)c(=O)n12)Nc1cc(Cl)ccc1Cl
TGI (SF-268 CNS): > 100 µM
TGI (HCT-15 colon): > 56.6 µM
TGI (NCI-H23 lung): > 100 µM
TGI (OVCAR-5 ovarian): > 100 µM
TGI (LXFL 529 NSCLC): > 100 µM
TGI (SF-539 CNS): > 100 µM
TGI (CCRF-CEM leukemia): > 100 µM
TGI (OVCAR-4 ovarian): > 100 µM
TGI (DLD-1 colon): > 100 µM

COc1cc(C2c3cc4c(cc3[C@H](NC(=O)c3cccs3)C3COC(=O)[C@H]23)OCO4)cc(OC)c1OC (stereo partly specified)
TGI (SF-268 CNS): > 40.8 µM
TGI (OVCAR-5 ovarian): > 95.1 µM
TGI (LXFL 529 NSCLC): 47.2 µM
TGI (SF-539 CNS): < 0.0141 µM
TGI (T-47D breast): > 100 µM
TGI (DLD-1 colon): 36.8 µM

COc1ccc(NC(=O)CC/C(CC(=O)c2ccccc2Cl)=N\Nc2nnc(C)n2N)cc1
TGI (SF-268 CNS): > 100 µM
TGI (HCT-15 colon): > 100 µM
TGI (NCI-H23 lung): > 100 µM
TGI (OVCAR-5 ovarian): > 100 µM
TGI (LXFL 529 NSCLC): > 100 µM
TGI (SF-539 CNS): > 100 µM
TGI (CCRF-CEM leukemia): > 100 µM
TGI (OVCAR-4 ovarian): > 100 µM
TGI (DLD-1 colon): > 100 µM

NC(=O)c1nnn(Cc2cc(Cl)c(C(=O)c3ccc(Cl)cc3)c(Cl)c2)c1N
GI50 (SF-268 CNS): > 9.09 µM
TGI (SF-268 CNS): > 9.09 µM and 29 µM
GI50 (HCT-15 colon): > 9.09 µM
TGI (HCT-15 colon): > 9.09 µM and 39.7 µM
GI50 (NCI-H23 lung): > 9.09 µM
TGI (NCI-H23 lung): > 9.09 µM and 43 µM
GI50 (OVCAR-5 ovarian): > 9.09 µM
TGI (OVCAR-5 ovarian): > 53.4 µM
TGI (LXFL 529 NSCLC): > 9.09 µM and 21.1 µM
GI50 (SF-539 CNS): > 9.09 µM
TGI (SF-539 CNS): > 9.09 µM and 46.5 µM
TGI (T-47D breast): > 51.6 µM
GI50 (CCRF-CEM leukemia): 7.76 µM
TGI (CCRF-CEM leukemia): > 100 µM
GI50 (OVCAR-4 ovarian): > 9.09 µM
TGI (OVCAR-4 ovarian): > 9.09 µM and 39.1 µM
GI50 (DLD-1 colon): 12.7 µM
TGI (DLD-1 colon): > 9.09 µM and 30.8 µM

Cn1c(=O)nc2n(-c3ccc(F)cc3)c3ccccc3nc-2c1=O
TGI (SF-268 CNS): > 100 µM
TGI (HCT-15 colon): 37.4 µM
TGI (NCI-H23 lung): 42.8 µM
TGI (OVCAR-5 ovarian): 42.2 µM
TGI (LXFL 529 NSCLC): > 100 µM
TGI (SF-539 CNS): 46.5 µM
TGI (CCRF-CEM leukemia): 63.7 µM
TGI (OVCAR-4 ovarian): 27.8 µM
TGI (DLD-1 colon): 62.1 µM

COC(=O)CSc1ccccc1
TGI (SF-268 CNS): > 100 µM
TGI (HCT-15 colon): > 100 µM
TGI (NCI-H23 lung): > 100 µM
TGI (OVCAR-5 ovarian): > 100 µM
TGI (LXFL 529 NSCLC): > 100 µM
TGI (SF-539 CNS): > 100 µM
TGI (CCRF-CEM leukemia): > 100 µM
TGI (OVCAR-4 ovarian): > 100 µM
TGI (DLD-1 colon): > 100 µM

N#Cc1ccc(/C=N\N2C(=O)c3ccccc3C2=O)cc1
TGI (SF-268 CNS): > 100 µM
TGI (HCT-15 colon): > 100 µM
TGI (NCI-H23 lung): > 100 µM
TGI (OVCAR-5 ovarian): > 100 µM
TGI (LXFL 529 NSCLC): > 100 µM
TGI (SF-539 CNS): > 100 µM
TGI (CCRF-CEM leukemia): > 100 µM
TGI (OVCAR-4 ovarian): > 100 µM
TGI (DLD-1 colon): > 100 µM

COC(=O)CCC(=O)CC(=O)C(=O)Nc1ccc(F)cc1
TGI (SF-268 CNS): > 100 µM
TGI (HCT-15 colon): > 100 µM
TGI (NCI-H23 lung): > 100 µM
TGI (OVCAR-5 ovarian): > 100 µM
TGI (LXFL 529 NSCLC): > 100 µM
TGI (SF-539 CNS): > 100 µM
TGI (CCRF-CEM leukemia): > 100 µM
TGI (OVCAR-4 ovarian): > 100 µM
TGI (DLD-1 colon): > 100 µM

COc1ccc(C(=O)C(c2ccc(OC)cc2)C2C(=O)Oc3ccccc32)cc1 (stereo unspecified)
GI50 (SF-268 CNS): > 100 µM
TGI (SF-268 CNS): > 100 µM
GI50 (HCT-15 colon): > 100 µM
TGI (HCT-15 colon): > 100 µM
GI50 (NCI-H23 lung): > 100 µM
TGI (NCI-H23 lung): > 100 µM
GI50 (OVCAR-5 ovarian): > 100 µM
TGI (OVCAR-5 ovarian): > 100 µM
GI50 (LXFL 529 NSCLC): > 100 µM
TGI (LXFL 529 NSCLC): > 100 µM
GI50 (SF-539 CNS): > 100 µM
TGI (SF-539 CNS): > 100 µM
GI50 (CCRF-CEM leukemia): > 100 µM
TGI (CCRF-CEM leukemia): > 100 µM
GI50 (OVCAR-4 ovarian): > 100 µM
TGI (OVCAR-4 ovarian): > 100 µM
GI50 (DLD-1 colon): > 100 µM
TGI (DLD-1 colon): > 100 µM

Nc1nc(=O)n(C2CC(O)C(O)C(CO)O2)cc1F (stereo unspecified)
TGI (SF-268 CNS): > 100 µM
TGI (HCT-15 colon): > 100 µM
TGI (NCI-H23 lung): > 100 µM
TGI (OVCAR-5 ovarian): > 100 µM
TGI (LXFL 529 NSCLC): > 100 µM
TGI (SF-539 CNS): > 100 µM
TGI (CCRF-CEM leukemia): > 100 µM
TGI (OVCAR-4 ovarian): > 100 µM
TGI (DLD-1 colon): > 100 µM

C[N+](C)(C)CCC(=O)N1C/C(=C\c2ccccc2)C(=O)/C(=C/c2ccccc2)C1
TGI (SF-268 CNS): 13 µM
TGI (HCT-15 colon): 6.49 µM
TGI (NCI-H23 lung): 23.3 µM
TGI (OVCAR-5 ovarian): 30.6 µM
TGI (LXFL 529 NSCLC): 13.5 µM
TGI (SF-539 CNS): 11.8 µM
TGI (T-47D breast): 4.41 µM
TGI (CCRF-CEM leukemia): 7.05 µM
TGI (OVCAR-4 ovarian): 9.79 µM
TGI (DLD-1 colon): 5.78 µM

O=C(CC1(O)C(=O)Nc2c(Cl)cccc21)c1ccccc1 (stereo unspecified)
TGI (SF-268 CNS): > 100 µM
TGI (HCT-15 colon): > 100 µM
TGI (NCI-H23 lung): > 100 µM
TGI (OVCAR-5 ovarian): > 100 µM
TGI (LXFL 529 NSCLC): > 100 µM
TGI (CCRF-CEM leukemia): > 100 µM
TGI (OVCAR-4 ovarian): > 100 µM
TGI (DLD-1 colon): > 100 µM
